Laboratory results from ChEMBL document CHEMBL3992485 (Medchemcomm, 2016).

Tests used:
[1] = test system: HeLa; assay: Antiproliferative activity against human HeLa cells measured after 24 hrs by MTT assay; assay type: functional, cell-based
[2] = test system: HeLa; assay: Induction of apoptosis in human HeLa cells assessed as late apoptotic cells at 0.5 uM after 24 hrs by Annexin-V-FITC/propidium iodide staining based flow cytometry (reference value: 2.64%); assay type: functional
[3] = test system: HeLa; assay: Induction of apoptosis in human HeLa cells assessed as viable cells at 0.5 uM after 12 hrs by Annexin-V-FITC/propidium iodide staining based flow cytometry (reference value: 91%); assay type: functional; details: read-out: Activity
[4] = test system: HeLa; assay: Cell cycle arrest in human HeLa cells assessed as accumulation at G1 phase at 0.4 uM after 12 hrs by propidium iodide staining based flow cytometry (reference value: 85.81%); assay type: functional
[5] = test system: HeLa; assay: Induction of apoptosis in human HeLa cells assessed as early apoptotic cells at 0.4 uM after 24 hrs by Annexin-V-FITC/propidium iodide staining based flow cytometry (reference value: 2.41%); assay type: functional
[6] = test system: HeLa; assay: Cell cycle arrest in human HeLa cells assessed as accumulation at G2/M phase at 0.2 uM after 12 hrs by propidium iodide staining based flow cytometry (reference value: 2.15%); assay type: functional
[7] = test system: HeLa; assay: Induction of apoptosis in human HeLa cells assessed as late apoptotic cells at 0.1 uM after 24 hrs by Annexin-V-FITC/propidium iodide staining based flow cytometry (reference value: 3.1%); assay type: functional
[8] = test system: HeLa; assay: Induction of apoptosis in human HeLa cells assessed as necrotic cells at 0.2 uM after 24 hrs by Annexin-V-FITC/propidium iodide staining based flow cytometry (reference value: 0.084%); assay type: functional
[9] = test system: HeLa; assay: Cell cycle arrest in human HeLa cells assessed as accumulation at G2/M phase after 24 hrs by propidium iodide staining based flow cytometry; assay type: functional
[10] = test system: HeLa; assay: Induction of apoptosis in human HeLa cells assessed as early apoptotic cells at 0.8 uM after 24 hrs by Annexin-V-FITC/propidium iodide staining based flow cytometry (reference value: 2.41%); assay type: functional
[11] = test system: HeLa; assay: Cell cycle arrest in human HeLa cells assessed as accumulation at G1 phase at 0.2 uM after 12 hrs by propidium iodide staining based flow cytometry (reference value: 85.81%); assay type: functional
[12] = test system: HeLa; assay: Cell cycle arrest in human HeLa cells assessed as accumulation at G2/M phase at 0.5 uM by propidium iodide staining based flow cytometry; assay type: functional; details: TDE = time-dependent effect
[13] = test system: A549; assay: Antiproliferative activity against human A549 cells measured after 24 hrs by MTT assay; assay type: functional, cell-based; details: A549, 24 h
[14] = test system: HeLa; assay: Induction of apoptosis in human HeLa cells after 24 hrs by Annexin-V-FITC/propidium iodide staining based flow cytometry; assay type: functional, cell-based
[15] = Antiproliferative activity against human 293T cells measured after 24 hrs by MTT assay; assay type: cell-based; details: 293T (HEK-293T) cells
[16] = test system: HeLa; assay: Induction of apoptosis in human HeLa cells assessed as necrotic cells at 0.8 uM after 24 hrs by Annexin-V-FITC/propidium iodide staining based flow cytometry (reference value: 0.084%); assay type: functional
[17] = test system: HeLa; assay: Induction of apoptosis in human HeLa cells assessed as early apoptotic cells at 0.5 uM after 24 hrs by Annexin-V-FITC/propidium iodide staining based flow cytometry (reference value: 6.02%); assay type: functional
[18] = test system: HeLa; assay: Cell cycle arrest in human HeLa cells assessed as accumulation at G2/M phase at 0.5 uM after 36 hrs by propidium iodide staining based flow cytometry (reference value: 8.14%); assay type: functional
[19] = test system: HeLa; assay: Induction of apoptosis in human HeLa cells assessed as early apoptotic cells at 0.1 uM after 24 hrs by Annexin-V-FITC/propidium iodide staining based flow cytometry (reference value: 2.41%); assay type: functional
[20] = test system: HeLa; assay: Induction of apoptosis in human HeLa cells assessed as late apoptotic cells at 0.2 uM after 24 hrs by Annexin-V-FITC/propidium iodide staining based flow cytometry (reference value: 3.1%); assay type: functional
[21] = test system: HeLa; assay: Induction of apoptosis in human HeLa cells assessed as viable cells at 0.4 uM after 24 hrs by Annexin-V-FITC/propidium iodide staining based flow cytometry (reference value: 94.4%); assay type: functional; details: read-out: Activity
[22] = test system: HeLa; assay: Induction of apoptosis in human HeLa cells assessed as necrotic cells at 0.1 uM after 24 hrs by Annexin-V-FITC/propidium iodide staining based flow cytometry (reference value: 0.084%); assay type: functional
[23] = test system: HeLa; assay: Induction of apoptosis in human HeLa cells at 0.5 uM by Annexin-V-FITC/propidium iodide staining based flow cytometry; assay type: functional, cell-based; details: TDE = time-dependent effect
[24] = Inhibition of tubulin polymerization in bovine brain assessed as reduction in tubulin assembly after 20 mins by spectrophotometric method; design: species or system Bos taurus
[25] = test system: HeLa; assay: Cell cycle arrest in human HeLa cells assessed as accumulation at S phase at 0.8 uM after 12 hrs by propidium iodide staining based flow cytometry (reference value: 49.41%); assay type: functional
[26] = test system: HeLa; assay: Induction of apoptosis in human HeLa cells assessed as viable cells at 0.1 uM after 24 hrs by Annexin-V-FITC/propidium iodide staining based flow cytometry (reference value: 94.4%); assay type: functional; details: read-out: Activity
[27] = test system: HeLa; assay: Induction of apoptosis in human HeLa cells assessed as late apoptotic cells at 0.5 uM after 36 hrs by Annexin-V-FITC/propidium iodide staining based flow cytometry (reference value: 2.64%); assay type: functional

IC50 [1]: 240 nM
IC50 [13]: 590 nM
IC50 [24]: 1820 nM
SMILES: CCn1cc(C(=O)N2CCN(S(=O)(=O)c3c(C(C)C)cc(C(C)C)cc3C(C)C)CC2)c2ccccc21
Activity [2]: 6.84%
viability at 0.5 µM [3]: 87.9%
Activity [4]: 22.09%
Activity [5]: 23.1%
Activity [6]: 20.46%
Activity [7]: 5.71%
Activity [8]: 0.098%
Activity [9]: Dose-dependent effect
Activity [10]: 32.6%
Activity [11]: 31.86%
Activity [12]: Tde
Activity [14]: Dose-dependent effect
CC50 at 24 h [15]: 424000 nM
Activity [16]: 1.05%
Activity [17]: 20.1%
Activity [18]: 65.29%
Activity [19]: 9%
Activity [20]: 7.24%
viability at 0.4 µM [21]: 63.6%
Activity [22]: 0.141%
Activity [23]: Tde
Activity [25]: 53.83%
viability at 0.1 µM [26]: 85.1%
Activity [27]: 21.2%
